# Test results taken from patent publication US20080132555A1, “PREPARATION AND UTILITY OF SUBSTITUTED PHENYLTETRAZOLES” (AUSPEX PHARMACEUTICALS, INC., priority 2006, published 2008).
# Settings: 5 microgram per mL
# Method: Liver microsomal stability assays were conducted at 1 mg per mL liver microsome protein with an NADPH-generating system in 2% NaHCO3 (2.2 mM NADPH, 25.6 mM glucose 6-phosphate, 6 units per mL glucose 6-phosphate dehydrogenase and 3.3 mM MgCl2). Test compounds were prepared as solutions in 20% acetonitrile-water and added to the assay mixture (final assay concentration 5 microgram per mL) and incubated at 37° C. Final concentration of acetonitrile in the assay were <1%. Aliquots (50 μL) were taken out at times 0, 15, 30, 45, and 60 minutes, and diluted with ice cold acetonitrile (200 μL) to stop the reactions. Samples were centrifuged at 12000 RPM for 10 minutes to precipitate proteins. Supernatants were transferred to microcentrifuge tubes and stored for LC/MS/MS analysis of the degradation half-life of the test compounds.
row,SMILES,increase in the degradation half-life as compared to the non-isotopically enriched drug (losartan)
1,"[2H]C(O)c1c(Cl)nc(C([2H])([2H])CCC)n1Cc1ccc(-c2ccccc2-c2nn[nH]n2)cc1 (stereo not shown) [Example 5, d3-{2-Butyl-5-chloro-3-[2′-(2H-tetrazol-5-yl)-biphenyl-4-ylmethyl]-3H-imidazol-4-yl}-methanol]",30-180%
2,"[2H]C(c1nc(Cl)c(CO)n1Cc1ccc(-c2ccccc2-c2nn[nH]n2)cc1)C([2H])([2H])C([2H])([2H])C([2H])([2H])[2H] (stereo not shown) [Example 2, d8-{2-Butyl-5-chloro-3-[2′-(2H-tetrazol-5-yl)-biphenyl-4-ylmethyl]-3H-imidazol-4-yl}-methanol]",30-180%
3,"[2H]C(O)c1c(Cl)nc(C([2H])C([2H])([2H])C([2H])([2H])C([2H])([2H])[2H])n1Cc1ccc(-c2ccccc2-c2nn[nH]n2)cc1 (stereo not shown) [Example 3, d9-{2-Butyl-5-chloro-3-[2′-(2H-tetrazol-5-yl)-biphenyl-4-ylmethyl]-3H-imidazol-4-yl}-methanol]",30-180%
4,"[2H]C(c1nc(Cl)c(C([2H])([2H])O)n1Cc1ccc(-c2ccccc2-c2nn[nH]n2)cc1)C([2H])([2H])C([2H])([2H])C([2H])([2H])[2H] (stereo not shown) [Example 4, d10-{2-Butyl-5-chloro-3-[2′-(2H-tetrazol-5-yl)-biphenyl-4-ylmethyl]-3H-imidazol-4-yl}-methanol]",30-180%
5,"[2H]C([2H])(O)c1c(Cl)nc(CCCC)n1Cc1ccc(-c2ccccc2-c2nn[nH]n2)cc1 [Example 1, d2-{2-Butyl-5-chloro-3-[2′-(2H-tetrazol-5-yl)-biphenyl-4-ylmethyl]-3H-imidazol-4-yl}-methanol]",30-180%
6,"[2H]C([2H])(O)c1c(Cl)nc(C([2H])([2H])CCC)n1Cc1ccc(-c2ccccc2-c2nn[nH]n2)cc1 [Example 6, d4-{2-Butyl-5-chloro-3-[2′-(2H-tetrazol-5-yl)-biphenyl-4-ylmethyl]-3H-imidazol-4-yl}-methanol]",30-180%

# Settings: cited from earlier work
row,SMILES,lowering of the rate of new-onset Diabetes Mellitus relative to the β-blocker atenolol [%]
1,"CCCCc1nc(Cl)c(CO)n1Cc1ccc(-c2ccccc2-c2nn[nH]n2)cc1 [losartan, Losartan]",25
